{"source": "ChEMBL document CHEMBL1124469", "about": "“Synthesis and dopaminergic activity of 2-substituted octahydrobenzo[f]quinolines” (J Med Chem, 1989)", "key": {"D(2) dopamine receptor [1]": {"molecular_target": "T1, D(2) dopamine receptor (Bos taurus, UniProt P20288)", "T1 sequence (P20288 whole entry)": "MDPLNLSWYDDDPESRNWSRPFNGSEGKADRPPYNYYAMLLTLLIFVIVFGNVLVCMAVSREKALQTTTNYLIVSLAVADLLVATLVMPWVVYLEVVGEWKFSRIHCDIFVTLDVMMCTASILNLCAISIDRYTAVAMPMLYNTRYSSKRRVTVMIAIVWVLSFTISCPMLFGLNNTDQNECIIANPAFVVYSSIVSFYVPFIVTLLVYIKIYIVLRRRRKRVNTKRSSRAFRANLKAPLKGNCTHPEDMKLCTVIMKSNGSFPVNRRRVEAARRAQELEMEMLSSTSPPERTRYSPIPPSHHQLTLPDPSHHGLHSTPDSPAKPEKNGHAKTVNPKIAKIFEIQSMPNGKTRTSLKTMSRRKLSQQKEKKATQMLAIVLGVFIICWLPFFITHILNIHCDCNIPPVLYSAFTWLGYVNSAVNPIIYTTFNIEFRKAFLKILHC", "assay": "High binding affinity for dopamine D-2 receptor from bovine anterior pituitary membrane, using radioligand [3H]spiroperidol"}, "D(2) dopamine receptor [2]": {"molecular_target": "T1, D(2) dopamine receptor", "assay": "Low binding affinity for dopamine D-2 receptor from bovine anterior pituitary membrane, using radioligand [3H]spiroperidol"}, "[3]": {"molecular_target": "D(2) dopamine receptor (Bos taurus) (UniProt P20288)", "sequence (P20288 whole entry)": "as above", "assay": "Low percent binding affinity for different states of the Dopamine D-2 receptor in bovine anterior pituitary membranes, using radioligand [3H]spiroperidol", "assay_type": "cell membranes"}, "[4]": {"molecular_target": "D(2) dopamine receptor (Bos taurus) (UniProt P20288)", "assay": "High percent binding affinity for different states of the Dopamine receptor D2 in bovine anterior pituitary membranes, using radioligand [3H]spiroperidol"}, "D(2) dopamine receptor [5]": {"molecular_target": "T1, D(2) dopamine receptor", "assay": "High binding affinity for dopamine D-2 receptor from bovine anterior pituitary membrane, using radioligand [3H]spiroperidol in bovine anterior pituitary membranes", "assay_type": "cell membranes"}, "D(2) dopamine receptor [6]": {"molecular_target": "T1, D(2) dopamine receptor", "assay": "Low binding affinity for dopamine D-2 receptor from bovine anterior pituitary membrane, using radioligand [3H]spiroperidol in bovine anterior pituitary membranes", "assay_type": "cell membranes"}, "D(2) dopamine receptor [7]": {"molecular_target": "T1, D(2) dopamine receptor", "assay": "Low binding affinity for dopamine receptor D2 from bovine anterior pituitary membrane, using radioligand [3H]spiroperidol in bovine anterior pituitary membranes", "assay_type": "cell membranes"}, "[8]": {"molecular_target": "D(2) dopamine receptor (Bos taurus) (UniProt P20288)", "assay": "Low percent binding affinity for different states of the dopamine receptor D2 in bovine anterior pituitary membranes, using radioligand [3H]spiroperidol", "assay_type": "cell membranes"}}}
{"smiles": "CCCN1C[C@H](C)C[C@@H]2c3cc(O)ccc3CC[C@H]21", "values": [{"measurement": "Ki", "setting": "D(2) dopamine receptor [1]", "value": 8, "unit": "nM"}, {"measurement": "Ki", "setting": "D(2) dopamine receptor [2]", "value": 1940, "unit": "nM"}, {"measurement": "Low", "setting": "[3]", "value": 87, "unit": "%"}, {"measurement": "Percent of receptors in high-affinity state", "setting": "[4]", "value": 13, "unit": "%"}]}
{"smiles": "CCCN1C[C@H](CSC)C[C@@H]2c3cc(O)c(O)cc3CC[C@H]21", "values": [{"measurement": "Low", "setting": "[3]", "value": 67, "unit": "%"}, {"measurement": "Percent of receptors in high-affinity state", "setting": "[4]", "value": 33, "unit": "%"}]}
{"smiles": "CCCN1C[C@H](CSC)C[C@@H]2c3cc(O)ccc3CC[C@H]21", "values": [{"measurement": "Ki", "setting": "D(2) dopamine receptor [5]", "value": 14, "unit": "nM"}, {"measurement": "Ki", "setting": "D(2) dopamine receptor [6]", "value": 1210, "unit": "nM"}, {"measurement": "Low", "setting": "[3]", "value": 79, "unit": "%"}, {"measurement": "Percent of receptors in high-affinity state", "setting": "[4]", "value": 21, "unit": "%"}]}
{"smiles": "CCCN1C[C@H](CSC)C[C@@H]2c3ccc(O)c(O)c3CC[C@H]21", "values": [{"measurement": "Ki", "setting": "D(2) dopamine receptor [2]", "value": 1730, "unit": "nM"}, {"measurement": "Low", "setting": "[3]", "value": 100, "unit": "%"}]}
{"smiles": "CCCN1C[C@H](CC#N)C[C@@H]2c3cccc(O)c3CC[C@H]21", "values": [{"measurement": "Ki", "setting": "D(2) dopamine receptor [6]", "value": 5390, "unit": "nM"}, {"measurement": "Low", "setting": "[3]", "value": 100, "unit": "%"}]}
{"smiles": "CCCN1C[C@H](CSC)C[C@@H]2c3cccc(O)c3CC[C@H]21", "values": [{"measurement": "Ki", "setting": "D(2) dopamine receptor [7]", "value": 250, "unit": "nM"}, {"measurement": "Low", "setting": "[8]", "value": 100, "unit": "%"}]}
{"smiles": "NCCc1ccc(O)c(O)c1", "values": [{"measurement": "Low", "setting": "[3]", "value": 69, "unit": "%"}, {"measurement": "High", "setting": "[4]", "value": 31, "unit": "%"}]}
{"smiles": "CCCN1C[C@H](CC#N)C[C@@H]2c3cc(O)c(O)cc3CC[C@H]21", "values": [{"measurement": "Ki", "setting": "D(2) dopamine receptor [1]", "value": 6, "unit": "nM"}, {"measurement": "Ki", "setting": "D(2) dopamine receptor [2]", "value": 360, "unit": "nM"}, {"measurement": "Low", "setting": "[3]", "value": 56, "unit": "%"}, {"measurement": "Percent of receptors in high-affinity state", "setting": "[4]", "value": 44, "unit": "%"}]}
{"smiles": "CCCN1C[C@H](C)C[C@@H]2c3cccc(O)c3CC[C@H]21", "values": [{"measurement": "Low", "setting": "[3]", "value": 100, "unit": "%"}]}
{"smiles": "CCCN1C[C@H](CC#N)C[C@@H]2c3ccc(O)c(O)c3CC[C@H]21", "values": [{"measurement": "Ki", "setting": "D(2) dopamine receptor [2]", "value": 1460, "unit": "nM"}, {"measurement": "Low", "setting": "[3]", "value": 100, "unit": "%"}]}
{"smiles": "CCCN1C[C@H](CC#N)C[C@@H]2c3cc(O)ccc3CC[C@H]21", "values": [{"measurement": "Ki", "setting": "D(2) dopamine receptor [5]", "value": 4, "unit": "nM"}, {"measurement": "Ki", "setting": "D(2) dopamine receptor [6]", "value": 280, "unit": "nM"}, {"measurement": "Low", "setting": "[3]", "value": 70, "unit": "%"}, {"measurement": "Percent of receptors in high-affinity state", "setting": "[4]", "value": 30, "unit": "%"}]}
